Test results from patent US4845194A, “Glycopeptide recovery process” (Eli Lilly and Company, priority 1987, dated 1989).

Assays:
Assay in all cases: In vivo antimicrobial activity in experimentally infected mice (ED50)
[1] = test system: Staphylococcus aureus; conditions: for ED50 Value Staphylococcus aureus: mg/kg × 2, doses administered subcutaneously to mice 1 and 4 hours postinfection, dose protecting 50% of animals
Method: (§1) The A82846 antibiotics have shown in vivo antimicrobial activity against experimentally-induced infections in laboratory animals. When two doses of test compound were administered to mice experimentally infected with the test organism, the activity observed was measured as an ED50 value [effective dose in mg/kg to protect 50% of the test animals: see Warren Wick, et al., J. Bacteriol. 81, 233-235 (1961)].
(§2) ^a mg/kg × 2; doses administered subcutaneously to mice 1 and 4

[2] = test system: Streptococcus pneumoniae; conditions: for ED50 Value Streptococcus pneumoniae: mg/kg × 2, doses administered subcutaneously to mice 1 and 4 hours postinfection, dose protecting 50% of animals
Method: as §1, §2

[3] = test system: Streptococcus pyogenes; conditions: for ED50 Value Streptococcus pyogenes: mg/kg × 2, doses administered subcutaneously to mice 1 and 4 hours postinfection, dose protecting 50% of animals
Method: as §1, §2

| Compound | ED50 Value Staphylococcus aureus [1] | ED50 Value Streptococcus pneumoniae [2] | ED50 Value Streptococcus pyogenes [3] | ED50 ([1]; Staphylococcus aureus, sc, read-out: ED50 Value Staphylococcus aureus) | ED50 ([2]; Streptococcus pneumoniae, sc, read-out: ED50 Value Streptococcus pneumoniae) | ED50 ([3]; Streptococcus pyogenes, sc, read-out: ED50 Value Streptococcus pyogenes) |
| --- | --- | --- | --- | --- | --- | --- |
| CN[C@H](CC(C)C)C(=O)N[C@H]1C(=O)N[C@@H](CC(N)=O)C(=O)N[C@H]2C(=O)N[C@H]3C(=O)N[C@H](C(=O)N[C@@H](C(=O)O)c4cc(O)cc(O)c4-c4cc3ccc4O)[C@H](O[C@@H]3C[C@@](C)(N)[C@H](O)[C@@H](C)O3)c3ccc(cc3)Oc3cc2cc(c3O[C@H]2O[C@@H](CO)[C@H](O)[C@@H](O)[C@@H]2O[C@H]2C[C@](C)(N)[C@@H](O)[C@H](C)O2)Oc2ccc(cc2Cl)[C@H]1O [Compound A82846A] | 0.19 mg/kg | 0.17 mg/kg | 0.19 mg/kg |  |  |  |
| CN[C@H](CC(C)C)C(=O)N[C@H]1C(=O)N[C@@H](CC(N)=O)C(=O)N[C@H]2C(=O)N[C@H]3C(=O)N[C@H](C(=O)N[C@H](C(=O)O)c4cc(O)cc(O)c4-c4cc3ccc4O)[C@H](O[C@H]3C[C@](C)(N)[C@@H](O)[C@H](C)O3)c3ccc(c(Cl)c3)Oc3cc2cc(c3O[C@@H]2O[C@H](CO)[C@@H](O)[C@H](O)[C@H]2O[C@H]2C[C@](C)(N)[C@@H](O)[C@H](C)O2)Oc2ccc(cc2Cl)[C@H]1O [Compound A82846B] | 0.19 mg/kg | 0.18 mg/kg | 0.20 mg/kg |  |  |  |
| CN[C@@H](CC(C)C)C(=O)N[C@H]1C(=O)N[C@H](CC(N)=O)C(=O)N[C@H]2C(=O)N[C@H]3C(=O)N[C@@H](C(=O)NC(C(=O)O)c4cc(O)cc(O)c4-c4cc3ccc4O)[C@@H](O[C@H]3C[C@](C)(N)[C@H](O)[C@@H](C)O3)c3ccc(cc3)Oc3cc2cc(c3O[C@H]2O[C@@H](CO)[C@@H](O)[C@H](O)[C@@H]2O[C@H]2C[C@](C)(N)[C@H](O)[C@@H](C)O2)Oc2ccc(cc2)[C@@H]1O (stereo partly drawn) [Compound A82846C] | 2.18 mg/kg | 5.87 mg/kg | 2.71 mg/kg |  |  |  |
| CN[C@H](CC(C)C)C(=O)N[C@H]1C(=O)N[C@@H](CC(N)=O)C(=O)N[C@H]2C(=O)N[C@H]3C(=O)N[C@H](C(=O)N[C@H](C(=O)O)c4cc(O)cc(O)c4-c4cc3ccc4O)[C@H](O)c3ccc(c(Cl)c3)Oc3cc2cc(c3O[C@@H]2O[C@H](CO)[C@@H](O)[C@H](O)[C@H]2O[C@H]2C[C@](C)(N)[C@H](O)[C@H](C)O2)Oc2ccc(cc2Cl)[C@H]1O [Vancomycin, vancomycin, reference compound] |  |  |  | 1.3 mg/kg | 1.52 mg/kg | 0.72 mg/kg |
